Where no end group is shown, it is not given here.
How the values were obtained:
L. monocytogenes = test: MIC, L. monocytogenes; type: cell-based, Listeria monocytogenes; details: L. monocytogenes (KCTC 3710), 18 hours at 37° C.
Text: To compare the antimicrobial activity among the peptides produced by the method of Example 1, the inventors of the present invention measured the minimal growth inhibitory concentration (MIC), which is minimum concentration of the peptide showing no dissociation of bacterial cells.
Specifically, the bacterial strain described in the following Table 2 was purchased and cultured to a mid-log phase in each medium with a composition suitable for each strain. Then, after dilution to bacterial cell concentration of 2×10^4 cells/100 μl, the cells were inoculated to a microtiter plate (NUNC, USA). Thereafter, Hp1404-T1, Hp1404-T1a, Hp1404-T1b, Hp1404-T1c, Hp1404-T1d or Hp1404-T1e peptide which has been synthesized in Example 1 above was subjected to serial dilution, ½ times for each, with BSA (bovine serum albumin) solution in a 96-well plate. After adding the cells to a plate, the cells were cultured for 18 hours at 37° C. By using a microtiter plate reader (Merck Elisa reader, Germany), the absorbance was measured at a wavelength of 600 nm to determine the MIC value of each bacterial strain. As a control group, Hp1404 as a mother peptide was used.

S. aureus (ATCC 25923) = test: Anti-biofilm activity (crystal violet); type: cell-based, Staphylococcus aureus; details: 24 hours at 37° C.
Experimental: To compare the antimicrobial activity among the peptides produced by the method of Example 1, the inventors of the present invention measured the biofilm inhibitory concentration value of the peptide showing no dissociation of bacterial cells.
Specifically, among the bacterial strains described in the above Table 2, bacteria showing favorable biofilm forming were cultured to a mid-log phase in each medium. Then, after dilution to bacterial cell concentration of 5×10^4 cells/100 μl, the cells were inoculated to a microtiter plate (PSL). Thereafter, Hp1404, Hp1404-T1c, Hp1404-T1d or Hp1s404-T1e peptide which has been synthesized in Example 1 above was diluted, 1/10 times for each, with 10 mM sodium phosphate (pH 7.2) solution in a 96-well plate. After adding the cells (10 μl) to a plate, the cells were cultured for 24 hours at 37° C. After removing the supernatant completely, the cells were fixed with 100% methanol for 15 minutes and reacted for 1 hour with Crystal violet staining solution followed by rinsing for 3 times. Then, after dissolving in 95% ethanol, the absorbance was measured at a wavelength of 595 nm by using a microtiter plate reader to determine the biofilm minimal inhibitory concentration value of each bacterial strain.

[1] = Cytotoxicity in normal cell line (MTT); type: cell-based; details: human, HaCaT keratinocytes, read-out: Cell survival ability; for viability at 24 h, 6.25 µM: peptide concentration 6.25 μM; for viability at 24 h, 12.5 µM: peptide concentration 12.5 μM; for viability at 24 h, 25 µM: peptide concentration 25 μM; for viability at 24 h, 50 µM: peptide concentration 50 μM; for viability at 24 h, 100 µM: peptide concentration 100 μM; for viability at 24 h, 200 µM: peptide concentration 200 μM, HaCaT
Experimental: To determine the cytotoxicity of the peptide produced by the method of Example 1 in normal cell line, toxicity was measured by using human keratinocytes (HaCaT cell line, Dr. N E. Fusenig, Heidelberg, Germany).
Specifically, HaCaT cells which have been cultured in DMEM medium containing 10% FBS (Fetal Bovine Serum) were aliquoted in a 96-well plate to have 2×10^5 cells per well. After culturing them for 24 hours, the cells were subjected to a treatment with Hp1404, Hp1404-T1, Hp1404-T1a, Hp1404-T1b, Hp1404-T1c, Hp1404-T1d, or Hp1404-T1e, each at concentration of 6.25, 12.5, 25.0, 50.0, 100.0 or 200.0 μM/well, followed by reaction for 24 hours in a 5% CO2 incubator. After 24 hours, a reaction solution containing 0.5 mg/ml MTT (Thiazolyl Blue Tetrazolium Bromide) dissolved in physiological saline (PBS) was added in an amount of 100 μl to each well and the reaction was allowed to occur for 4 hours. After that, the supernatant was removed, and, by dissolving MTT crystals that are formed by adding 200 μl of DMSO (dimethyl sulfoxide), the absorbance at 560 nm was measured to determine the cell survival ability.

[2] = Stability against trypsin enzyme (RP-HPLC); type: in vitro ADME; details: 20 nM trypsin, 37° C., read-out: amount of remaining peptide; for remaining at 1 h, 200 μg/mL: reaction for 1 hour; for remaining at 2 h, 200 μg/mL: reaction for 2 hours
Experimental: To determine whether or not the peptides prepared by the method of Example 1 have stability against an enzyme, RP-HPLC (reverse-phase HPLC) was carried out. Specifically, 20 μg of the peptide was reacted with 100 μl of trypsin at concentration of 20 nM for 1 to 2 hours at 37° C. After the reaction, 20 μl of the reaction product was applied to RP-HPLC, and the amount of remaining peptide was examined.

[3] = test system: erythrocytes of a mouse (Balb/c); test: Hemolytic activity; type: cell-based
Experimental: To compare the cytotoxicity among the peptides that are produced by the method of Example 1, erythrocyte hemolytic activity of the synthesized peptide was measured.
Specifically, erythrocytes of a mouse (Balb/c, 6 week old, female) were diluted in physiological saline (PBS, pH 7.0) to have concentration of 8%, and then subjected to a treatment with Hp1404, Hp1404-T1, Hp1404-T1a, Hp1404-T1b, Hp1404-T1c, Hp1404-T1d or Hp1404-T1e, each at concentration of 6.25, 12.5, 25.0, 50.0, 100.0 and 200.0 μM/well, respectively, followed by a reaction for 1 hour at 37° C. After that, the amount of hemoglobin contained in a supernatant collected by centrifuge at 1,000×g was determined by measuring the absorbance at a wavelength of 414 nm. As a control group to be used as a reference for cell disruption level, the supernatant collected by a treatment with 1% Triton X-100 (Sigma, USA) and a reaction for 1 hour at 37° C. was used to measure the absorbance. By setting the resulting absorbance value at 100%, the hemolytic activity of each peptide was calculated using the following mathematical formula 1. Erythrocyte disrupting ability (hemolysis) (%)=(Absorbance A−Absorbance B)/(Absorbance C−Absorbance B)×100 [Mathematical formula 1] (in the above formula, Absorbance A indicates the absorbance of a reaction solution treated with each peptide, in which the absorbance is measured at a wavelength of 414 nm; Absorbance B indicates the absorbance of a reaction solution treated with PBS, in which the absorbance is measured at a wavelength of 414 nm; and Absorbance C indicates the absorbance of a reaction solution treated with 1% Triton X-100, in which the absorbance is measured at a wavelength of 414 nm).

| Substance | Minimal inhibitory concentration (L. monocytogenes) [µM] | Biofilm minimal inhibitory concentration (S. aureus (ATCC 25923)) [µM] | viability at 24 h, 6.25 µM [1] [%] | viability at 24 h, 12.5 µM [1] [%] | viability at 24 h, 25 µM [1] [%] | viability at 24 h, 50 µM [1] [%] | viability at 24 h, 100 µM [1] [%] | viability at 24 h, 200 µM [1] [%] | remaining at 1 h, 200 μg/mL [2] [%] | remaining at 2 h, 200 μg/mL [2] [%] | Erythrocyte disrupting ability ([3]; peptide concentration 6.25 μM) [%] | Erythrocyte disrupting ability ([3]; peptide concentration 12.5 μM) [%] | Erythrocyte disrupting ability ([3]; peptide concentration 25 μM) [%] | Erythrocyte disrupting ability ([3]; peptide concentration 50 μM) [%] | Erythrocyte disrupting ability ([3]; peptide concentration 100 μM) [%] | Erythrocyte disrupting ability ([3]; peptide concentration 200 μM, 1 hour at 37° C., relative to 1% Triton X-100) [%] |
| --- | --- | --- | --- | --- | --- | --- | --- | --- | --- | --- | --- | --- | --- | --- | --- | --- |
| GILGKLWEGVKSIF-NH2 [Hp1404] | 3.13 | 3.13 | 100 | 100 | 100 | 30.5 | 0.11 | 0 | 60 | 45 | 0.01 | 2.16 | 11.01 | 55.41 | 92.64 | 100 |
| ILKKLLKKVKKI-NH2 [Hp1404-T1e] | >25 | 12.5 | 100 | 100 | 100 | 100 | 100 | 100 | ≥ 80 | 80 | 0.10 | 0.28 | 0.41 | 0 | 0.15 |  |
| ILKKLLKKVKSI-NH2 [Hp1404-T1d] | >25 | 6.25 | 100 | 53.9 | 38.9 | 33.1 | 34.6 |  | ≥ 80 | 80 | 0 | 0 | 0 | 0 | 0 |  |

Source: patent US11117931B2, “Antimicrobial peptide derived from Hp1404 peptide and uses thereof” (priority 2017, dated 2021)
